Test results: patent US20100035755A1, “METHOD OF CONTROLLING WEEDS IN A TURF GRASS BY USING SULFONYLUREA COMPOUNDS” (Moghu Research Center Ltd., priority 2008, published 2010)

Assays:
Zoysia japonica = assay: Turf grass selectivity, greenhouse pot test; assay type: in vivo; conditions: for phytotoxicity (visual assessment 0-10): Zoysia japonica
Procedure, shortened: (§1)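 Turf mats transplanted to pots of sandy loam/top soil (1:1), mown weekly to 0.5-1.0 cm and grown one month in greenhouse (25˜30° C. day, 15˜25° C. night). Test chemicals sprayed at 400, 200, 100, 50, 25, 12, 6, 3 g ai/ha in 2,000 L/ha tap-water dilution; three replicates, randomised, averaged.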

Kentucky bluegrass = assay: Turf grass selectivity, greenhouse pot test; assay type: in vivo, Poa pratensis
Procedure, shortened: as §1

Cyperus amuricus = assay: Weed spectrum, greenhouse pot test; assay type: in vivo; conditions: two weeks after application
Procedure, shortened: (§2)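 Seeds of each species were sown into pots filled with sandy loam and top soil (1:1) and kept in a greenhouse. Test chemical was sprayed immediately after sowing (pre-emergence) or after two weeks' growth to about three-leaf stage (post-emergence). Efficacy was judged visually after two weeks, from 0 (none) to 100.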

Digitaria sanguinalis = assay: Weed spectrum, greenhouse pot test; assay type: in vivo; conditions: for efficacy (0-100 scale): two weeks after application
Procedure, shortened: as §2

Kummerowia striata = assay: Weed spectrum, greenhouse pot test; assay type: in vivo; conditions: two weeks after application
Procedure, shortened: as §2

Poa annua = assay: Weed spectrum, greenhouse pot test; assay type: in vivo; conditions: for efficacy (0-100 scale): two weeks after application
Procedure, shortened: as §2

Portulaca oleracea = assay: Weed spectrum, greenhouse pot test; assay type: in vivo; conditions: two weeks after application
Procedure, shortened: as §2

Trifolium repens = assay: Weed spectrum, greenhouse pot test; assay type: in vivo; conditions: two weeks after application
Procedure, shortened: as §2

Veronica officinalis = assay: Weed spectrum, greenhouse pot test; assay type: in vivo; conditions: two weeks after application
Procedure, shortened: as §2

## COc1nc(C)nc(NC(=O)NS(=O)(=O)c2cscc2C2(CF)OCCO2)n1 [Example 2, 3-(2-fluoromethyl-1,3-dioxalan-2-yl)-N-[(4-methoxy-6-methyltriazin-2-yl)aminocarbonyl]4-thiophene sulfonamide]
Zoysia japonica; 100 g ai/ha or less
  safety to Zoysia japonica: high safety
Zoysia japonica; 3 g ai/ha, 2 weeks
  phytotoxicity (visual assessment 0-10): 0
Zoysia japonica; 3 g ai/ha, 4 weeks
  phytotoxicity (visual assessment 0-10): 0
Zoysia japonica; 6 g ai/ha, 2 weeks
  phytotoxicity (visual assessment 0-10): 0
Zoysia japonica; 6 g ai/ha, 4 weeks
  phytotoxicity (visual assessment 0-10): 0
Zoysia japonica; 12 g ai/ha, 2 weeks
  phytotoxicity (visual assessment 0-10): 0
Zoysia japonica; 12 g ai/ha, 4 weeks
  phytotoxicity (visual assessment 0-10): 0
Zoysia japonica; 25 g ai/ha, 2 weeks
  phytotoxicity (visual assessment 0-10): 0
Zoysia japonica; 25 g ai/ha, 4 weeks
  phytotoxicity (visual assessment 0-10): 0
Zoysia japonica; 50 g ai/ha, 2 weeks
  phytotoxicity (visual assessment 0-10): 0
Zoysia japonica; 50 g ai/ha, 4 weeks
  phytotoxicity (visual assessment 0-10): 0
Zoysia japonica; 100 g ai/ha, 2 weeks
  phytotoxicity (visual assessment 0-10): 1
Zoysia japonica; 100 g ai/ha, 4 weeks
  phytotoxicity (visual assessment 0-10): 0
Zoysia japonica; 200 g ai/ha, 2 weeks
  phytotoxicity (visual assessment 0-10): 2
Zoysia japonica; 200 g ai/ha, 4 weeks
  phytotoxicity (visual assessment 0-10): 1
Zoysia japonica; 400 g ai/ha, 2 weeks
  phytotoxicity (visual assessment 0-10): 4
Zoysia japonica; 400 g ai/ha, 4 weeks
  phytotoxicity (visual assessment 0-10): 3
Kentucky bluegrass; 3 g ai/ha, 2 weeks
  phytotoxicity (visual assessment 0-10): 3
Kentucky bluegrass; 3 g ai/ha, 4 weeks
  phytotoxicity (visual assessment 0-10): 1
Kentucky bluegrass; 6 g ai/ha, 2 weeks
  phytotoxicity (visual assessment 0-10): 5
Kentucky bluegrass; 6 g ai/ha, 4 weeks
  phytotoxicity (visual assessment 0-10): 3
Kentucky bluegrass; 12 g ai/ha, 2 weeks
  phytotoxicity (visual assessment 0-10): 7
Kentucky bluegrass; 12 g ai/ha, 4 weeks
  phytotoxicity (visual assessment 0-10): 5
Kentucky bluegrass; 25 g ai/ha, 2 weeks
  phytotoxicity (visual assessment 0-10): 10
Kentucky bluegrass; 25 g ai/ha, 4 weeks
  phytotoxicity (visual assessment 0-10): 10
Kentucky bluegrass; 50 g ai/ha, 2 weeks
  phytotoxicity (visual assessment 0-10): 10
Kentucky bluegrass; 50 g ai/ha, 4 weeks
  phytotoxicity (visual assessment 0-10): 10
Kentucky bluegrass; 100 g ai/ha, 2 weeks
  phytotoxicity (visual assessment 0-10): 10
Kentucky bluegrass; 100 g ai/ha, 4 weeks
  phytotoxicity (visual assessment 0-10): 10
Kentucky bluegrass; 200 g ai/ha, 2 weeks
  phytotoxicity (visual assessment 0-10): 10
Kentucky bluegrass; 200 g ai/ha, 4 weeks
  phytotoxicity (visual assessment 0-10): 10
Kentucky bluegrass; 400 g ai/ha, 2 weeks
  phytotoxicity (visual assessment 0-10): 10
Kentucky bluegrass; 400 g ai/ha, 4 weeks
  phytotoxicity (visual assessment 0-10): 10
Cyperus amuricus; Post-emergence, 12 g ai/ha
  efficacy (0-100 scale): 30
Cyperus amuricus; Post-emergence, 25 g ai/ha
  efficacy (0-100 scale): 40
Cyperus amuricus; Post-emergence, 50 g ai/ha
  efficacy (0-100 scale): 50
Cyperus amuricus; Post-emergence, 100 g ai/ha
  efficacy (0-100 scale): 50
Cyperus amuricus; Pre-emergence, 12 g ai/ha
  efficacy (0-100 scale): 20
Cyperus amuricus; Pre-emergence, 25 g ai/ha
  efficacy (0-100 scale): 30
Cyperus amuricus; Pre-emergence, 50 g ai/ha
  efficacy (0-100 scale): 50
Cyperus amuricus; Pre-emergence, 100 g ai/ha
  efficacy (0-100 scale): 60
Digitaria sanguinalis; 50 to 100 g/ha
  weed controlled: at least 90%
Digitaria sanguinalis; Post-emergence, 12 g ai/ha
  efficacy (0-100 scale): 40
Digitaria sanguinalis; Post-emergence, 25 g ai/ha
  efficacy (0-100 scale): 70
Digitaria sanguinalis; Post-emergence, 50 g ai/ha
  efficacy (0-100 scale): 90
Digitaria sanguinalis; Post-emergence, 100 g ai/ha
  efficacy (0-100 scale): 100
Digitaria sanguinalis; Pre-emergence, 12 g ai/ha
  efficacy (0-100 scale): 95
Digitaria sanguinalis; Pre-emergence, 25 g ai/ha
  efficacy (0-100 scale): 95
Digitaria sanguinalis; Pre-emergence, 50 g ai/ha
  efficacy (0-100 scale): 100
Digitaria sanguinalis; Pre-emergence, 100 g ai/ha
  efficacy (0-100 scale): 100
Kummerowia striata; Post-emergence, 12 g ai/ha
  efficacy (0-100 scale): 70
Kummerowia striata; Post-emergence, 25 g ai/ha
  efficacy (0-100 scale): 70
Kummerowia striata; Post-emergence, 50 g ai/ha
  efficacy (0-100 scale): 100
Kummerowia striata; Post-emergence, 100 g ai/ha
  efficacy (0-100 scale): 100
Kummerowia striata; Pre-emergence, 12 g ai/ha
  efficacy (0-100 scale): 70
Kummerowia striata; Pre-emergence, 25 g ai/ha
  efficacy (0-100 scale): 90
Kummerowia striata; Pre-emergence, 50 g ai/ha
  efficacy (0-100 scale): 90
Kummerowia striata; Pre-emergence, 100 g ai/ha
  efficacy (0-100 scale): 100
Poa annua; 50 to 100 g/ha
  weed controlled: at least 90%
Poa annua; Post-emergence, 12 g ai/ha
  efficacy (0-100 scale): 60
Poa annua; Post-emergence, 25 g ai/ha
  efficacy (0-100 scale): 80
Poa annua; Post-emergence, 50 g ai/ha
  efficacy (0-100 scale): 90
Poa annua; Post-emergence, 100 g ai/ha
  efficacy (0-100 scale): 95
Poa annua; Pre-emergence, 12 g ai/ha
  efficacy (0-100 scale): 50
Poa annua; Pre-emergence, 25 g ai/ha
  efficacy (0-100 scale): 60
Poa annua; Pre-emergence, 50 g ai/ha
  efficacy (0-100 scale): 90
Poa annua; Pre-emergence, 100 g ai/ha
  efficacy (0-100 scale): 90
Portulaca oleracea; Post-emergence, 12 g ai/ha
  efficacy (0-100 scale): 70
Portulaca oleracea; Post-emergence, 25 g ai/ha
  efficacy (0-100 scale): 90
Portulaca oleracea; Post-emergence, 50 g ai/ha
  efficacy (0-100 scale): 100
Portulaca oleracea; Post-emergence, 100 g ai/ha
  efficacy (0-100 scale): 100
Portulaca oleracea; Pre-emergence, 12 g ai/ha
  efficacy (0-100 scale): 90
Portulaca oleracea; Pre-emergence, 25 g ai/ha
  efficacy (0-100 scale): 90
Portulaca oleracea; Pre-emergence, 50 g ai/ha
  efficacy (0-100 scale): 100
Portulaca oleracea; Pre-emergence, 100 g ai/ha
  efficacy (0-100 scale): 100
Trifolium repens; Post-emergence, 12 g ai/ha
  efficacy (0-100 scale): 40
Trifolium repens; Post-emergence, 25 g ai/ha
  efficacy (0-100 scale): 50
Trifolium repens; Post-emergence, 50 g ai/ha
  efficacy (0-100 scale): 60
Trifolium repens; Post-emergence, 100 g ai/ha
  efficacy (0-100 scale): 60
Trifolium repens; Pre-emergence, 12 g ai/ha
  efficacy (0-100 scale): 30
Trifolium repens; Pre-emergence, 25 g ai/ha
  efficacy (0-100 scale): 60
Trifolium repens; Pre-emergence, 50 g ai/ha
  efficacy (0-100 scale): 70
Trifolium repens; Pre-emergence, 100 g ai/ha
  efficacy (0-100 scale): 90
Veronica officinalis; Post-emergence, 12 g ai/ha
  efficacy (0-100 scale): 20
Veronica officinalis; Post-emergence, 25 g ai/ha
  efficacy (0-100 scale): 20
Veronica officinalis; Post-emergence, 50 g ai/ha
  efficacy (0-100 scale): 20
Veronica officinalis; Post-emergence, 100 g ai/ha
  efficacy (0-100 scale): 20
Veronica officinalis; Pre-emergence, 12 g ai/ha
  efficacy (0-100 scale): 30
Veronica officinalis; Pre-emergence, 25 g ai/ha
  efficacy (0-100 scale): 30
Veronica officinalis; Pre-emergence, 50 g ai/ha
  efficacy (0-100 scale): 40
Veronica officinalis; Pre-emergence, 100 g ai/ha
  efficacy (0-100 scale): 50
